Test results taken from paper PMC12072338, “Allosteric Modulation of GCase Enhances Lysosomal Activity and Reduces ER Stress in GCase-Related Disorders” (International Journal of Molecular Sciences, 2025).
Read-outs that look alike come from different tables or passages of the source.

Target: T1, rhGCase (Cerezyme) (Homo sapiens, UniProt P04062, R534H)
T1 construct: Human full-length wild-type GCase protein (Cerezyme®, Genzyme, Naarden, Netherlands); purchased Genzyme, Naarden, Netherlands
T1 sequence (P04062 40-536 R534H): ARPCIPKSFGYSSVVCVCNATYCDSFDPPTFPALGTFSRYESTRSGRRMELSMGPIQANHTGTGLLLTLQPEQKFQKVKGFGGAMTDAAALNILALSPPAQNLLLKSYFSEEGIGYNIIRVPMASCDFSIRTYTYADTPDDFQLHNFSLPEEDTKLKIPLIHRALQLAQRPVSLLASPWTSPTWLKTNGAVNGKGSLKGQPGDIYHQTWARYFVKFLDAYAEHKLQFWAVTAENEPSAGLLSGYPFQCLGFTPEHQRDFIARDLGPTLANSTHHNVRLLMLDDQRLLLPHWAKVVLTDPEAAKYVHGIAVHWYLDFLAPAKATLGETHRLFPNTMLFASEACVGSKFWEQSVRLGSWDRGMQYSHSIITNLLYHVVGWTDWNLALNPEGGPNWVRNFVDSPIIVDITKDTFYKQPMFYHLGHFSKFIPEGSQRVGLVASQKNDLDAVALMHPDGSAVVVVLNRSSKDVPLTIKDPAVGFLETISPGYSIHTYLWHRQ
Assay: nanoDSF thermal stability of rhGCase
Assay type: binding
Method: The stabilizing effects of GT-02287 and GT-02329 on GCase were assessed by nanoDSF. rhGCase protein (Cerezyme®, Genzyme, Naarden, Netherlands) was prepared at 0.1 mg/mL in two buffers: buffer 1 (10 mmol/L Citric Acid, 20 mmol/L Na2HPO4, pH 7.0) and buffer 2 (50 mmol/L Histidine, 150 mmol/L NaCl, pH 5.0). DMSO was added to a final concentration of 2%.
Samples were loaded into nanoDSF standard capillaries and analyzed using the Prometheus NT.48 instrument (NanoTemper Technologies, Munich, Germany). The thermal unfolding of GCase was monitored by tracking intrinsic fluorescence changes in tryptophan and tyrosine residues as the temperature increased from 20 °C to 95 °C at 2 °C/min. Each condition was run in duplicate at 25 μM and 100 μM compound concentrations. Melting temperatures (Tm) were determined from the fluorescence curves, and ΔTm shifts between compound-treated and control samples were calculated. The significance of Tm shifts was assessed using two criteria: an absolute ΔTm shift greater than 1.0 °C (instrumental criterion) and an absolute ΔTm standard deviation of 0.2 °C or less (statistical criterion).

## OC[C@H]1CNC[C@@H](O)[C@@H]1O [IFG, isofagomine]
pH 5.0
  Effect on protein thermal stability at pH 5.0: demonstrated stabilization
pH 5.0, 100 µM compound, mean ± SD of two experiments, read-out: ΔTm at pH 5.0 and 100 µM
  ΔTm at 100 µM: 3 °C
pH 7.0, 25 µM compound, mean ± SD of two experiments
  ΔTm at 25 µM: 9.9 ± 0.2 °C
pH 7.0, 100 µM compound, mean ± SD of two experiments, read-out: ΔTm at pH 7.0 and 100 µM
  ΔTm at 100 µM: 11.5 °C
